From patent US7592357B2, “Compounds” (SmithKline Beecham Corporation, priority 2004, dated 2009)

Biological target: T1, human recombinant ROCK1 kinase domain (amino acid 2-543) (Homo sapiens, UniProt Q13464)
T1 construct: ROCK1 kinase domain (amino acid 2-543); His-tag; made in house; host or cells: Sf9 cells
Assay: ROCK Kinase Assay
Type: biochemical
Conditions: 1 nM hROCK1, 1 uM ATP, SPA; results recorded as pIC50; range tested 50 uM to 0.8 nM or 10 uM to 0.8 nM
Description: ROCK inhibitor activity was determined using human recombinant ROCK1 kinase domain (amino acid 2-543) expressed in Sf9 cells (see WO9967283). The enzyme was purified using His-tag NTA column and Source15 HPLC chromatography. The assay of Rock-1 activity involved incubation with peptide substrate and ATP^33, the subsequent incorporation of P^33 into the peptide was quantified by Scintillation Proximity Assay (SPA—Amersham Pharmacia).
For IC50 determination, test compounds were typically dissolved at 10 mM in 100% DMSO, with subsequent serial dilution in 100% DMSO. Compounds were typically assayed over an eleven point dilution range with a concentration in the assay of 50 uM to 0.8 nM, in 3-fold dilutions. IC50) values were calculated by bespoke curve fitting software and then converted to pIC50. In some cases, compounds were assayed over an eleven point dilution range with a concentration in the assay of 10 uM to 0.8 nM, in 3-fold dilutions. […]
Assays were performed in opaque, white walled, 384 well plates, in a total assay volume of 20 ul. […] P^33 incorporation was quantified by scintillation counting in a Packard TopCount. When the reaction was terminated by addition of a 10 ul solution, P33 incorporation was quantified by luminescence detection using a PerkinElmer Viewlux ultraHTS microplate imager.

T1 sequence (Q13464 2-543): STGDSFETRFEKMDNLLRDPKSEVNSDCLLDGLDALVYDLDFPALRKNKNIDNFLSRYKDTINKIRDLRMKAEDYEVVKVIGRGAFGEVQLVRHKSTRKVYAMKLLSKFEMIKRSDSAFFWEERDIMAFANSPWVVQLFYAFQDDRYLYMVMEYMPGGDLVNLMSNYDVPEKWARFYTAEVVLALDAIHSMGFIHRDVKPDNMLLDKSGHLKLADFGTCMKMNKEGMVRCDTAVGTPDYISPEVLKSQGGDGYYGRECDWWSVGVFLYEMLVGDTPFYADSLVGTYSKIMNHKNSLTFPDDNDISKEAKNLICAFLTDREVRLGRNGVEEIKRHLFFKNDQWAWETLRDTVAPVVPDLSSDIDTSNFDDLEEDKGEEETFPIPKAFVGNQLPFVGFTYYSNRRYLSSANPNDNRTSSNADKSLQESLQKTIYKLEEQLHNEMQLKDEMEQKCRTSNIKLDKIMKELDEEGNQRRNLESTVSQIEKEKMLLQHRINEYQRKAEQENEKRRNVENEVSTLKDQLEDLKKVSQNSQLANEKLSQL

- activity in the ROCK kinase assay: not active
Compound: COc1cccc(CN2C(=O)CC(c3ccc(C(F)(F)F)cc3)C(C(=O)Nc3cc4cn[nH]c4cc3F)=C2C)c1 (stereo not shown) [Example 104, N-(6-Fluoro-1H-indazol-5-yl)-2-methyl-1-{[3-(methyloxy)phenyl]methyl}-6-oxo-4-[4-(trifluoromethyl)phenyl]-1,4,5,6-tetrahydro-3-pyridinecarboxamide]
